Data on 64 molecules can be found in publication PMC6792352, “Limited Chemical Structural Diversity Found to Modulate Thyroid Hormone Receptor in the Tox21 Chemical Library” (Environmental Health Perspectives, 2019).

Structures can show the parent of a compound that is named as a salt.

The first data set in a line: in vitro. The note with it: rat, gh3-tre-luc cells, AC50 (uM) modified / 1000.
For orientation: CC50 means the concentration that lowers cell viability or growth by half. Read a high CC50 as better tolerance by the cells. Molecule `O=C(O)[C@H]1/C(=C/CO)O[C@@H]2CC(=O)N21` [Clavulanate lithium] displayed a CC50 at 24 h of more than 50 µM. On the same count and under the same terms, the same measure for `CN1C(=O)CN2CCc3ccccc3C2c2cc(Cl)ccc21` (stereo not drawn) [Clazolam]: more than 50 µM; for `COc1cc(N)c(Cl)cc1C(=O)NC1CCN(Cc2ccccc2)CC1` [Clebopride maleate]: more than 20 µM; for `Clc1ccc(Cn2c(CN3CCCC3)nc3ccccc32)cc1` [Clemizole hydrochloride]: more than 20 µM. In the case of `C[N+]12CCC(CC1)C(OC(=O)C(O)(c1ccccc1)c1ccccc1)C2` (stereo not drawn) [Clidinium bromide], the CC50 at 24 h is more than 20 µM. Still for that read-out and setting: the same measure for `CC(C)(C)C(=O)C(Oc1ccc(Cl)cc1)n1ccnc1` (stereo not drawn) [Climbazole]: more than 50 µM. In turn, `CCCCCCCCCCCCCCCC(=O)O[C@@H]1[C@@H](O)[C@@H](O)[C@@H]([C@H](NC(=O)[C@@H]2C[C@@H](CCC)CN2C)[C@H](C)Cl)O[C@@H]1SC` [Clindamycin palmitate hydrochloride] showed a half-maximal cytotoxic concentration (CC50) at 24 h of more than 50 µM. The same measure, in the same setting: the same measure for `CCC[C@@H]1C[C@@H](C(=O)N[C@@H]([C@H]2O[C@H](SC)[C@H](OP(=O)(O)O)[C@@H](O)[C@H]2O)[C@H](C)Cl)N(C)C1` [Clindamycin phosphate]: more than 50 µM; for `CCC(C)(Oc1ccc(C2(c3ccc(OC(C)(CC)C(=O)O)cc3)CCCCC2)cc1)C(=O)O` (stereo not drawn) [Clinofibrate]: more than 50 µM. In turn, `CN1[C@@H]2CC[C@H]1C[C@@H](OC(c1ccccc1)c1ccc(Cl)cc1)C2` (stereo partly drawn) [Clobenztropine] came in with a CC50 at 24 h of 5.13 µM. The same measure, in the same setting: the result for `CCC(=O)O[C@]1(C(=O)CCl)[C@@H](C)C[C@H]2[C@@H]3CCC4=CC(=O)C=C[C@]4(C)[C@@]3(F)[C@@H](O)C[C@@]21C` [Clobetasol propionate] reads more than 50 µM; that for `C[C@H]1C[C@H]2[C@@H]3CCC4=CC(=O)C=C[C@]4(C)[C@@]3(F)[C@@H](O)C[C@]2(C)[C@@]1(O)C(=O)CCl` [Clobetasol], more than 50 µM; that for `CCCC(=O)O[C@]1(C(=O)CCl)[C@@H](C)C[C@H]2[C@@H]3CCC4=CC(=O)C=C[C@]4(C)[C@@]3(F)C(=O)C[C@@]21C` [Clobetasone butyrate], more than 50 µM. Take `CC(CN(C)C)C(C)(O)Cc1ccc(Cl)cc1` (stereo not drawn) [Clobutinol hydrochloride]: the CC50 at 24 h was more than 50 µM.

For `C[C@@H]1C[C@H]2[C@@H]3C[C@H](F)C4=CC(=O)C=C[C@]4(C)[C@@]3(Cl)[C@@H](O)C[C@]2(C)[C@H]1C(=O)COC(=O)C(C)(C)C` [Clocortolone pivalate], the CC50 at 24 h was more than 50 µM. The same measure, in the same setting: the result for `C#CCOC(=O)[C@@H](C)Oc1ccc(Oc2ncc(Cl)cc2F)cc1` [Clodinafop-propargyl] reads more than 90 µM; that for `O=P(O)(O)C(Cl)(Cl)P(=O)(O)O` [Clodronic acid, disodium salt], more than 50 µM; that for `Nc1nc(Cl)nc2c1ncn2[C@@H]1O[C@H](CO)[C@@H](O)[C@@H]1F` [Clofarabine], 0.263 µM.

Take `CC(C)/N=c1\cc2n(-c3ccc(Cl)cc3)c3ccccc3nc-2cc1Nc1ccc(Cl)cc1` [Clofazimine]: the midpoint of cytotoxicity, the CC50 at 24 h, lay at 5.75 µM.

`NS(=O)(=O)c1ccc(Cl)c(S(N)(=O)=O)c1` [Clofenamide] showed a CC50 at 24 h of more than 50 µM. Same read-out and setting: the result for `Clc1ccccc1-c1nnc(-c2ccccc2Cl)nn1` [Clofentezine] reads more than 90 µM. `CCN(CC)CCNC(=O)COc1ccc(Cl)cc1` [Clofexamide]: the CC50 at 24 h is more than 50 µM. On the same count and under the same terms, the same measure for `CCOC(=O)C(C)(C)Oc1ccc(Cl)cc1` [Clofibrate]: more than 90 µM; for `CC(C)(Oc1ccc(Cl)cc1)C(=O)O` [Clofibric acid]: more than 50 µM. Still for that read-out and setting: the same measure for `CCCCCCC[N+](CC)(CC)CCCCc1ccc(Cl)cc1` [Clofilium tosylate]: more than 20 µM. The molecule `O=C(Nc1ccc(Cl)cc1)Nc1ccc(Cl)c(C(F)(F)F)c1` [Cloflucarban] had a CC50 at 24 h of 6.22 µM.

In turn, `CC1(C)CON(Cc2ccccc2Cl)C1=O` [Clomazone] showed a CC50 at 24 h of more than 90 µM. On the same count and under the same terms, the same measure for `CN(C)CCCN1c2ccccc2CCc2ccc(Cl)cc21` [Clomipramine hydrochloride]: 7.67 µM; for `Clc1cccc(Cl)c1N=C1NCCN1` [Clonidine hydrochloride]: more than 90 µM; for `C[C@@H]1CCC[C@H](C)N1NC(=O)c1ccc(Cl)c(S(N)(=O)=O)c1` [Clopamide]: more than 20 µM.

Regarding `Clc1ccc(C(OCCN2CCCCC2)c2ccccc2)cc1` (stereo not drawn) [Cloperastine hydrochloride], the CC50 at 24 h came out at 9.53 µM.

As to `COC(=O)[C@H](c1ccccc1Cl)N1CCc2sccc2C1` [Clopidogrel hydrogen sulfate], the CC50 at 24 h was more than 50 µM. On the same count and under the same terms, the same measure for `Cc1nc(C)c(Cl)c(O)c1Cl` [Clopidol]: more than 50 µM. Consider `Cc1cc(CC(=O)O)c(C)n1-c1ccc(Cl)cc1` [Clopirac], for which the CC50 at 24 h was more than 50 µM.

For `CC(Oc1cccc(Cl)c1)C(=O)O` (stereo not drawn) [Cloprop], the CC50 at 24 h is more than 90 µM. The molecule `O=C(O)CCC/C=C\C[C@H]1[C@H](/C=C/[C@H](O)COc2cccc(Cl)c2)[C@@H](O)C[C@H]1O` [Cloprostenol sodium] yielded a CC50 at 24 h of more than 50 µM. `O=C(O)c1nc(Cl)ccc1Cl` [Clopyralid]: the CC50 at 24 h was more than 90 µM. Regarding `CCCCCC(C)OC(=O)COc1ccc(Cl)c2cccnc12` (stereo not drawn) [Cloquintocet-mexyl], half-maximal cytotoxicity (CC50 at 24 h) was put at 71.4 µM. On the same count and under the same terms, the result for `C#CCN(C)CCCOc1ccc(Cl)cc1Cl` [Clorgyline hydrochloride] reads 28.1 µM; that for `CCOC(=O)COc1ccc2c(C)c(CCN(CC)CC)c(=O)oc2c1Cl` [Cloricromen hydrochloride], 31.2 µM; that for `O=C1c2ccccc2C(=O)C1c1ccc(Cl)cc1` [Clorindione], more than 50 µM. For `CC(C)NCC(O)c1ccccc1Cl` (stereo not drawn) [Clorprenaline hydrochloride], the CC50 at 24 h is more than 50 µM.

`Cc1cc(C(C#N)c2ccc(Cl)cc2)c(Cl)cc1NC(=O)c1cc(I)cc(I)c1O` (stereo not drawn) [Closantel] returned a CC50 at 24 h of 25 µM. On the same count and under the same terms, the result for `CN/C(=N\[N+](=O)[O-])NCc1cnc(Cl)s1` [Clothianidin] reads more than 90 µM; that for `CN1CCN(C2=Nc3ccccc3Sc3ccc(Cl)cc32)CC1` [Clothiapine], 15.2 µM; that for `Cc1onc(-c2ccccc2Cl)c1C(=O)N[C@@H]1C(=O)N2[C@@H]1SC(C)(C)[C@@H]2C(=O)O` [Cloxacillin sodium], more than 20 µM. With `Oc1ccc(Cl)c2cccnc12` [Cloxyquin], the CC50 at 24 h was found to be 7.71 µM. In turn, `CN1CCN(C2=Nc3cc(Cl)ccc3Nc3ccccc32)CC1` [Clozapine] yielded a CC50 at 24 h of 15.9 µM. Molecule `Cc1ncc(C[n+]2csc(CCO[P@](=O)(O)OP(=O)(O)O)c2C)c(N)n1` [Cocarboxylase chloride] showed a CC50 at 24 h of more than 50 µM. The same measure, in the same setting: the same measure for `Cc1c(C(=O)O)c(O)cc2c1C(=O)c1c(O)c(C3OC(CO)C(O)C(O)C3O)c(O)c(O)c1C2=O` (stereo not drawn) [Cochineal]: 29.1 µM; for `COc1ccc2c3c1O[C@H]1[C@@H](O)C=C[C@H]4[C@@H](C2)N(C)CC[C@@]341` [Codeine hydrochloride]: more than 90 µM. On the same count and under the same terms, the result for `C/C=C/C=C/CCCCCCCO` [Codlelure] reads 79.4 µM. On the same count and under the same terms, the same measure for `CC(C)(COP(=O)(O)OP(=O)(O)OC[C@H]1O[C@@H](n2cnc3c(N)ncnc32)[C@H](O)[C@@H]1OP(=O)(O)O)C(O)C(=O)NCCC(=O)NCCS` (stereo partly drawn) [Coenzyme A trilithium dihydrate]: more than 50 µM; for `CC(C)CCC[C@@H](C)[C@H]1CC(=O)C2=C3CC[C@H]4C[C@@H](O)CC[C@]4(C)[C@H]3CC[C@@]21C` [Colestolone]: more than 50 µM. For the molecule `CCCCCCCCCCCCCCCC(=O)OC[C@H](COP(=O)([O-])OCC[N+](C)(C)C)OC(=O)CCCCCCCCCCCCCCC` [Colfosceril palmitate], the half-maximal cytotoxic concentration (CC50) at 24 h was more than 50 µM.

Staying with this data set, now noted: rat, gh3-tre-luc cells, AC50 (uM) modified / 1000, Tox21_110001=Tox21_110931; viability, 1 nM T3 present, 24 h.
`Cc1ncsc1CCCl` [Clomethiazole] gave a CC50 at 24 h of more than 50 µM.

Still in this data set, the particulars now being: rat, gh3-tre-luc cells, AC50 (uM) modified / 1000, Tox21_110001=Tox21_111146; viability, 1 nM T3 present, 24 h.
`Oc1ccc(Cl)cc1Cc1ccccc1` [Clorophene] had a CC50 at 24 h of 23.9 µM.

Staying with this data set, now noted: rat, gh3-tre-luc cells, AC50 (uM) modified / 1000, Tox21_110001=Tox21_111802; viability, 1 nM T3 present, 24 h.
The molecule `O=C(CCl)c1ccc(Oc2ccc(C(=O)CCl)cc2)cc1` [Clofenoxyde] had a cytotoxic concentration (CC50) at 24 h of more than 50 µM.

Staying with this data set, now noted: rat, gh3-tre-luc cells, AC50 (uM) modified / 1000, Tox21_110001=Tox21_111806; viability, 1 nM T3 present, 24 h.
Take `C[C@@H](Cc1ccccc1)NCc1ccccc1Cl` [Clobenzorex hydrochloride]: the CC50 at 24 h was more than 50 µM.

Still in this data set, the particulars now being: rat, gh3-tre-luc cells, AC50 (uM) modified / 1000, Tox21_110001=Tox21_111857; viability, 1 nM T3 present, 24 h.
`C[C@]12CC[C@H]3[C@@H](CCC4=C(Cl)C(=O)CC[C@@]43C)[C@@H]1CC[C@@H]2O` [Clostebol]: the CC50 at 24 h is more than 50 µM.

Still in this data set, the particulars now being: rat, gh3-tre-luc cells, AC50 (uM) modified / 1000, Tox21_110001=Tox21_112016; viability, 1 nM T3 present, 24 h.
For `CC(C)(C)NCC(O)c1cc(Cl)c(N)c(Cl)c1` (stereo not drawn) [Clenbuterol], it took 31.8 µM to reach half-maximal cytotoxicity (CC50 at 24 h).

The data set is the same for the next values; noted with them: rat, gh3-tre-luc cells, AC50 (uM) modified / 1000, Tox21_110001=Tox21_112608; viability, 1 nM T3 present, 24 h.
`CN1C(=O)CC(=O)N(c2ccccc2)c2cc(Cl)ccc21` [Clobazam] came in with a CC50 at 24 h of more than 50 µM.

The same data set, now with this note: rat, gh3-tre-luc cells, AC50 (uM) modified / 1000, Tox21_110001=Tox21_113271; viability, 1 nM T3 present, 24 h.
With `CCOC(=O)NC(C)(C)Cc1ccc(Cl)cc1` [Cloforex], the CC50 at 24 h was more than 50 µM.

The same data set, now with this note: rat, gh3-tre-luc cells, AC50 (uM) modified / 1000, Tox21_110001=Tox21_113309; viability, 1 nM T3 present, 24 h.
`COc1ccc2c(C(=O)c3ccc(Cl)cc3)c(C)n(CC(=O)O)c2c1` [Clometacine] yielded a CC50 at 24 h of more than 50 µM.

The same data set, now with this note: rat, gh3-tre-luc cells, AC50 (uM) modified / 1000, Tox21_110001=Tox21_202985; viability, 1 nM T3 present, 24 h.
For the molecule `Oc1ccc(Cl)cc1Cc1ccccc1` [Clorophene], the CC50 at 24 h was determined as 43.2 µM.

The data set is the same for the next values; noted with them: rat, gh3-tre-luc cells, AC50 (uM) modified / 1000, Tox21_110001=Tox21_400046; viability, 1 nM T3 present, 24 h.
`Oc1ccc(Cl)cc1Cc1ccccc1` [Clorophene] showed a CC50 at 24 h of 61.9 µM.
